Experimental data taken from patent publication US20260007133A1, “HERBICIDAL COMPOSITION COMPRISING AZINE COMPOUNDS” (BASF SE, priority 2022, published 2026).
Like-named read-outs stand apart in the source and are kept apart here.

How the values were obtained:
Format in all cases: in vivo
Echinochloa crus-galli [1] = test: Greenhouse post-emergence (POST) herbicidal test on ECHCG
How it was run: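 Injury was rated visually on a 0–100 scale, where 0 is normal growth and 100 is complete above-ground kill, 20 days after treatment. Test plants at 3–15 cm height received a post-emergence spray of water-dispersed active from 5% emulsion concentrates. Pots held loamy sand with ~3.0% humus, at 10-25 °C or 20-35 °C depending on species.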

Brachiaria decumbens = test: Greenhouse pre-emergence (PRE) herbicidal test on BRADC; conditions: Urochloa decumbens, BRADC PRE, use rate 2 gai/ha
How it was run: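 Damage was rated visually on a 0 to 100 scale at 20 days after treatment, where 0 meant normal growth and 100 meant no emergence or complete kill of above-ground parts. Compounds were applied in water to freshly sown loamy-sand pots.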

Echinochloa crus-galli [2] = test: Greenhouse pre-emergence (PRE) herbicidal test on ECHCG; conditions: Echinochloa crus-galli, pre-emergence, PRE
Alopecurus myosuroides = test: Greenhouse pre-emergence (PRE) herbicidal test on ALOMY; conditions: Alopecurus myosuroides, pre-emergence
How it was run: (§1)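 Visual 0–100 rating at 20 days after treatment; 0 = normal growth, 100 = no emergence or complete kill of shoots. Pre-emergent application to seeded pots of loamy sand (~3.0% humus), species-dependent temperature 10-25° C or 20-35° C.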

Amaranthus retroflexus = test: Greenhouse pre-emergence (PRE) herbicidal test on AMARE; conditions: Amaranthus retroflexus, pre-emergence, 480 h, PRE, 20 DAT; for inhibition at 2 g/ha: AMARE
How it was run: as §1

Commelina benghalensis = test: Greenhouse pre-emergence (PRE) herbicidal test on COMBE; conditions: Commelina benghalensis, pre-emergence; for inhibition at 4 g/ha: use rate 4 gai/ha
How it was run: as §1

Ambrosia artemisiifolia = test: Greenhouse pre-emergence (PRE) herbicidal test on AMBEL; conditions: Ambrosia artemisiifolia, pre-emergence
[3] = 480 h, PRE, use rate 2 gai/ha, 20 DAT, read-out: % activity

## COc1c(Cl)cc(F)c(F)c1Nc1nc(N)nc(C(C)(C)F)n1 [Compound I-3]
Echinochloa crus-galli [1]; ECHCG POST, use rate 2 gai/ha
  % activity: 25%
Echinochloa crus-galli [1]; ECHCG POST, use rate 8 gai/ha
  % activity: 40%
Echinochloa crus-galli [1]; Echinochloa crus-galli, post-emergence, 432 h, POST, ECHCG, 2 gai/ha, 18 DAT, read-out: % activity solo application
  inhibition at 2 g/ha: 0%
Echinochloa crus-galli [1]; Echinochloa crus-galli, post-emergence, 432 h, POST, ECHCG, I-3 solo 2 gai/ha, 18 DAT
  pest or weed control at 2 g/ha: 0%
Echinochloa crus-galli [1]; Echinochloa crus-galli, post-emergence, 480 h, ECHCG POST, 20 DAT, use rate 2 gai/ha, read-out: % activity
  inhibition at 2 g/ha: 10%
Echinochloa crus-galli [1]; Echinochloa crus-galli, post-emergence, 480 h, ECHCG POST, 20 DAT, use rate 8 gai/ha, read-out: % activity
  inhibition at 8 g/ha: 55%
Echinochloa crus-galli [1]; Echinochloa crus-galli, post-emergence, 480 h, POST, 2 gai/ha, 20 DAT
  pest or weed control at 2 g/ha: 10%
Echinochloa crus-galli [1]; Echinochloa crus-galli, post-emergence, 480 h, POST, ECHCG, use rate 2 gai/ha, 20 DAT, read-out: solo application % activity
  inhibition at 2 g/ha: 0%
Echinochloa crus-galli [1]; Echinochloa crus-galli, post-emergence, 480 h, POST, ECHCG, use rate 4 gai/ha, 20 DAT
  inhibition at 4 g/ha: 35%
Echinochloa crus-galli [1]; Echinochloa crus-galli, post-emergence, 480 h, POST, ECHCG, use rate 8 gai/ha, 20 DAT, read-out: % activity
  inhibition at 8 g/ha: 50%
Echinochloa crus-galli [1]; Echinochloa crus-galli, post-emergence, 480 h, POST, ECHCG, use rate 8 gai/ha, 20 DAT, read-out: solo application % activity
  inhibition at 8 g/ha: 10%
Echinochloa crus-galli [1]; Echinochloa crus-galli, post-emergence, ECHCG POST, use rate 8 gai/ha, read-out: % activity
  inhibition at 8 g/ha: 35%
Echinochloa crus-galli [1]; Echinochloa crus-galli, post-emergence, POST, ECHCG, use rate 2 gai/ha, read-out: % activity
  inhibition at 2 g/ha: 30%
Brachiaria decumbens
  inhibition at 2 g/ha: 30%
Echinochloa crus-galli [2]; 240 h, use rate 1 gai/ha, 10 DAT
  inhibition at 1 g/ha: 10%
Echinochloa crus-galli [2]; 240 h, use rate 2 gai/ha, 10 DAT, read-out: % activity
  inhibition at 2 g/ha: 10%
Echinochloa crus-galli [2]; 240 h, use rate 4 gai/ha, 10 DAT
  inhibition at 4 g/ha: 20%
Echinochloa crus-galli [2]; 240 h, use rate 8 gai/ha, 10 DAT, read-out: % activity
  inhibition at 8 g/ha: 20%
Echinochloa crus-galli [2]; 432 h, ECHCG, I-3 solo 2 gai/ha, 18 DAT
  pest or weed control at 2 g/ha: 25%
Echinochloa crus-galli [2]; 480 h, ECHCG, 2 gai/ha, 20 DAT, read-out: % activity solo application
  inhibition at 2 g/ha: 5%
Echinochloa crus-galli [2]; 480 h, ECHCG, 8 gai/ha, 20 DAT, read-out: % activity solo application
  inhibition at 8 g/ha: 95%
Echinochloa crus-galli [2]; 480 h, ECHCG, use rate 2 gai/ha, 20 DAT, read-out: solo application % activity
  inhibition at 2 g/ha: 5%
Echinochloa crus-galli [2]; 480 h, ECHCG, use rate 8 gai/ha, 20 DAT, read-out: solo application % activity
  inhibition at 8 g/ha: 95%
Alopecurus myosuroides; 480 h, PRE, 2 gai/ha, 20 DAT, read-out: % activity
  pest or weed control at 2 g/ha: 10%
Alopecurus myosuroides; 480 h, PRE, 8 gai/ha, 20 DAT
  pest or weed control at 8 g/ha: 70%
Alopecurus myosuroides; 480 h, PRE, ALOMY, 2 gai/ha, 20 DAT, read-out: % activity solo application
  inhibition at 2 g/ha: 5%
Alopecurus myosuroides; 480 h, PRE, ALOMY, 8 gai/ha, 20 DAT, read-out: % activity solo application
  inhibition at 8 g/ha: 90%
Alopecurus myosuroides; 480 h, PRE, ALOMY, use rate 8 gai/ha, 20 DAT, read-out: solo application % activity
  inhibition at 8 g/ha: 90%
Alopecurus myosuroides; [3]
  inhibition at 2 g/ha: 65%
Alopecurus myosuroides; ALOMY PRE, use rate 2 gai/ha, read-out: % activity
  inhibition at 2 g/ha: 25%
Alopecurus myosuroides; PRE, ALOMY, use rate 4 gai/ha
  inhibition at 4 g/ha: 90%
Amaranthus retroflexus; 2 gai/ha
  pest or weed control at 2 g/ha: 90%
Amaranthus retroflexus; 2 gai/ha, read-out: % activity solo application
  inhibition at 2 g/ha: 60%
Amaranthus retroflexus; use rate 2 gai/ha, read-out: solo application % activity
  inhibition at 2 g/ha: 60%
Commelina benghalensis; 432 h, PRE, COMBE, I-3 solo 2 gai/ha, 18 DAT, read-out: % activity
  pest or weed control at 2 g/ha: 50%
Commelina benghalensis; 480 h, COMBE PRE, 20 DAT, use rate 2 gai/ha, read-out: % activity
  inhibition at 2 g/ha: 0%
Commelina benghalensis; 480 h, COMBE PRE, 20 DAT, use rate 8 gai/ha, read-out: % activity
  inhibition at 8 g/ha: 75%
Commelina benghalensis; 480 h, PRE, 8 gai/ha, 20 DAT
  pest or weed control at 8 g/ha: 75%
Commelina benghalensis; 480 h, PRE, COMBE, 2 gai/ha, 20 DAT, read-out: % activity solo application
  inhibition at 2 g/ha: 10%
Commelina benghalensis; 480 h, PRE, COMBE, 8 gai/ha, 20 DAT, read-out: % activity solo application
  inhibition at 8 g/ha: 10%
Commelina benghalensis; 480 h, PRE, COMBE, use rate 2 gai/ha, 20 DAT, read-out: solo application % activity
  inhibition at 2 g/ha: 10%
Commelina benghalensis; 480 h, PRE, COMBE, 20 DAT
  inhibition at 4 g/ha: 35%
Commelina benghalensis; 480 h, PRE, COMBE, use rate 8 gai/ha, 20 DAT, read-out: % activity
  inhibition at 8 g/ha: 70%
Commelina benghalensis; 480 h, PRE, COMBE, use rate 8 gai/ha, 20 DAT, read-out: solo application % activity
  inhibition at 8 g/ha: 10%
Commelina benghalensis; [3]
  inhibition at 2 g/ha: 10%
Commelina benghalensis; 480 h, PRE, use rate 8 gai/ha, 20 DAT, read-out: % activity
  inhibition at 8 g/ha: 35%
Commelina benghalensis; COMBE PRE, use rate 8 gai/ha, read-out: % activity
  inhibition at 8 g/ha: 60%
Commelina benghalensis; PRE, COMBE, use rate 2 gai/ha, read-out: % activity
  inhibition at 2 g/ha: 0%
Commelina benghalensis; PRE, COMBE
  inhibition at 4 g/ha: 25%
Commelina benghalensis; PRE, COMBE, use rate 8 gai/ha, read-out: % activity
  inhibition at 8 g/ha: 75%
Ambrosia artemisiifolia; 240 h, PRE, use rate 2 gai/ha, 10 DAT, read-out: % activity
  inhibition at 2 g/ha: 10%
Ambrosia artemisiifolia; 240 h, PRE, use rate 8 gai/ha, 10 DAT, read-out: % activity
  inhibition at 8 g/ha: 65%
Ambrosia artemisiifolia; 480 h, AMBEL PRE, 20 DAT, use rate 2 gai/ha, read-out: % activity
  inhibition at 2 g/ha: 50%
Ambrosia artemisiifolia; 480 h, PRE, AMBEL, 2 gai/ha, 20 DAT, read-out: % activity solo application
  inhibition at 2 g/ha: 10%
Ambrosia artemisiifolia; 480 h, PRE, AMBEL, 8 gai/ha, 20 DAT, read-out: % activity solo application
  inhibition at 8 g/ha: 45%
